Target: EGFR (UniProt P00533)
Experiment: Inhibition of EGFR Kinase Activity

EGFR, sequence (P00533 whole entry, looked up): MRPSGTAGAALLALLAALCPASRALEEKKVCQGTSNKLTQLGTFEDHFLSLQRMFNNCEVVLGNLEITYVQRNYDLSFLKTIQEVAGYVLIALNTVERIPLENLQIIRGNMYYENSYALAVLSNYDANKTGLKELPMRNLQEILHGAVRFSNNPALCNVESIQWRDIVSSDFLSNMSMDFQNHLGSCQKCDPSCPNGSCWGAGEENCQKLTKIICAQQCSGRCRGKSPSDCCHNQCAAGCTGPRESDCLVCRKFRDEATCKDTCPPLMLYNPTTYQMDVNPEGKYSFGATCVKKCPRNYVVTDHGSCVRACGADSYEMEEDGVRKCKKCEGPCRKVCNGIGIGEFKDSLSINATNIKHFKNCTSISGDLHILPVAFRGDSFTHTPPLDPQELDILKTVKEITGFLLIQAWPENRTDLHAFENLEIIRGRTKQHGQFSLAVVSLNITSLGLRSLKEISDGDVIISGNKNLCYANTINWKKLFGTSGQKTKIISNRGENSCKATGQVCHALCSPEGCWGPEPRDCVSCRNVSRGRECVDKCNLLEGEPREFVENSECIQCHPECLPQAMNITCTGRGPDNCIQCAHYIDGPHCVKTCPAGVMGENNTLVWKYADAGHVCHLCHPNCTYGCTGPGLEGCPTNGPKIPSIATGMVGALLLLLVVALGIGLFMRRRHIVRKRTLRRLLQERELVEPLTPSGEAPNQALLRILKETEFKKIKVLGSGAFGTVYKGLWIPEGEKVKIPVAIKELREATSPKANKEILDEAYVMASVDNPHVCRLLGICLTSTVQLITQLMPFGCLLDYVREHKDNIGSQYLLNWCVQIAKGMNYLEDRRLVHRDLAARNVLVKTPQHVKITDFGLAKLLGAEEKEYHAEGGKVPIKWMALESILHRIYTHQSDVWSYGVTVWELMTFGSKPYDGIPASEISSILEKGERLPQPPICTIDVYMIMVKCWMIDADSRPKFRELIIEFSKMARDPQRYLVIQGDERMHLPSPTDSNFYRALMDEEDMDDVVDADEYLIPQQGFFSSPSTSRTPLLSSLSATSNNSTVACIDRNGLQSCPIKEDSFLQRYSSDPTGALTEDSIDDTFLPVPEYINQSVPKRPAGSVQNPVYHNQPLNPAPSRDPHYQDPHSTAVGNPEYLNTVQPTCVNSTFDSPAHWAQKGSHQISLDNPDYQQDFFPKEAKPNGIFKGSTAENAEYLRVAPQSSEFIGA

IC50, < 50 µM:
C=CC(=O)Nc1cc(Nc2ncnc(N(C)c3ccc4c(cnn4Cc4ccccc4)c3)n2)ccc1OCCCN1CCOCC1
C=CCN(c1cccc(C)c1)c1ncnc(Nc2cccc(NC(=O)C#CC)c2)n1
CC#CC(=O)Nc1cccc(Nc2ncnc(N(C)c3cccc(Cl)c3)n2)c1
C=CCN(c1ccc(OCC)c(OCC)c1)c1ncnc(Nc2ccc(NC(=O)C=C)cc2)n1
C=CC(=O)Nc1ccc(Nc2ncnc(N(C)c3ccc(F)c(Cl)c3)n2)cc1
C=CC(=O)Nc1ccc(Nc2ncnc(N(CC)c3cc(OC)c(OC)c(OCCN4CCOCC4)c3)n2)cc1
CC#CC(=O)Nc1cccc(Nc2ncnc(N(CC)c3cc(Cl)ccc3C)n2)c1
C=CC(=O)Nc1ccc(Nc2ncnc(N(CC)c3cc(Cl)ccc3C)n2)cc1
C=CCN(c1ncnc(Nc2ccc(NC(=O)C=C)cc2)n1)C1CC1c1ccccc1 (stereo unspecified)
CN(c1ccc2NN(=Cc2c1)Cc3ccccn3)c4ncnc(Nc5ccc(NC(=O)C=C)cc5)n4
C=CC(=O)Nc1cccc(Nc2ncnc(N(C)c3ccc(OCc4ccccc4)c(Cl)c3)n2)c1
CC#CC(=O)Nc1cccc(Nc2ncnc(N(C)c3cccc(C(N)=O)c3)n2)c1
C=CC(=O)Nc1cccc(Nc2ncnc(N(C)c3cc(Cl)cc4ccccc34)n2)c1
C=CC(=O)Nc1cccc(Nc2ncnc(N(C)c3ccc(OCCOC)c(OC)c3)n2)c1
CC#CC(=O)Nc1cccc(Nc2ncnc(N(C)c3ccc(OCc4ccccc4)cc3)n2)c1
C=CC(=O)Nc1cc(Nc2ncnc(Nc3ccc4c(cnn4Cc4ccccc4)c3)n2)ccc1OCCCC1CCN(C)CC1
CC#CC(=O)Nc1cc(Nc2ncnc(N(C)c3ccc4c(cnn4Cc4ccccc4)c3)n2)ccc1OC
CC#CC(=O)Nc1cccc(Nc2ncnc(N(CC)c3ccc(OCCOC)c(OC)c3)n2)c1
C=CC(=O)Nc1cccc(Nc2ncnc(Nc3ccc(OCc4ccc(F)c(F)c4)c(F)c3)n2)c1
CC#CC(=O)Nc1cccc(Nc2ncnc(Nn3c(=O)n(C(=O)C(C)(C)C)c4ccccc43)n2)c1
C=CC(=O)Nc1cccc(Nc2ncnc(Nc3ccc(OC)c(OCCOC)c3)n2)c1
C=CC(=O)Nc1cccc(Nc2ncnc(Nc3ccc(OC)c(OC)c3)n2)c1
CC#CC(=O)Nc1cccc(Nc2ncnc(N(C)c3ccc4c(cnn4Cc4ccccc4)c3)n2)c1
C=CC(=O)Nc1ccc(Nc2ncnc(NN3CCCc4c(Cl)cccc43)n2)cc1
C=CCN(c1cccc(C)c1)c1ncnc(Nc2cccc(NC(=O)C=C)c2)n1
CC#CC(=O)Nc1cccc(Nc2ncnc(Nc3cccc(CC(=O)OC)c3)n2)c1
C=CC(=O)Nc1ccc(Nc2ncnc(Nc3cccc(C)c3)n2)cc1
C=CC(=O)Nc1cccc(Nc2ncnc(Nc3cc(Cl)ccc3C)n2)c1
C=CC(=O)Nc1cccc(Nc2ncnc(Nc3cc(Cl)cc4ccccc34)n2)c1
C=CC(=O)N(CCCN1CCOCC1)c1cccc(Nc2ncnc(Nc3ccc(F)c(Cl)c3)n2)c1
C=CC(=O)Nc1ccc(Nc2ncnc(N(C)c3ccc4c(cnn4Cc4ccccc4)c3)n2)cc1
CC#CC(=O)Nc1cccc(Nc2ncnc(Nc3cc(OC)c(OC)c(OCCN4CCOCC4)c3)n2)c1
C=CCN(c1ccc(OCCC)c(OCCC)c1)c1ncnc(Nc2cccc(NC(=O)C#CC)c2)n1
C=CC(=O)N(CCCN1CCOCC1)c1cccc(Nc2ncnc(Nc3cc(Cl)ccc3C)n2)c1
CC#CC(=O)Nc1cccc(Nc2ncnc(n2)N(C)c3ccc4NN(=Cc4c3)Cc5ccccn5)c1
CC#CC(=O)Nc1cccc(Nc2ncnc(Nc3ccc(OC)c(OCCOC)c3)n2)c1
CC#CC(=O)Nc1cccc(Nc2ncnc(N(CC)c3cccc(C(N)=O)c3)n2)c1
C=CC(=O)Nc1cccc(Nc2ncnc(N(CC)c3cccc(Cl)c3)n2)c1
C=CC(=O)Nc1ccc(Nc2ncnc(Nc3ccc4c(cnn4Cc4ccccc4)c3)n2)cc1OC
C=CC(=O)Nc1ccc(Nc2ncnc(N(C)c3ccc(OCCC)c(OCCC)c3)n2)cc1
C=CC(=O)Nc1ccc(Nc2ncnc(Nc3ccc(OC)c(OC)c3)n2)cc1
C=CC(=O)Nc1ccc(Nc2ncnc(N(C)c3cccc4ccccc34)n2)cc1
C=CC(=O)Nc1cc(Nc2ncnc(N(C)c3ccc(OCc4ccccc4)c(Cl)c3)n2)ccc1OCCCC1CCN(C)CC1
C=CCN(c1ccc(OC)c(OC)c1)c1ncnc(Nc2cccc(NC(=O)C#CC)c2)n1
C=CC(=O)Nc1cccc(Nc2ncnc(Nc3cc(OC)c(OC)c(OC)c3)n2)c1
C=CC(=O)Nc1cccc(Nc2ncnc(Nc3ccc(OCCO)cc3)n2)c1
C=CC(=O)Nc1ccc(Nc2ncnc(N(CC)n3c(=O)[nH]c4ccccc43)n2)cc1
C=CC(=O)Nc1ccc(Nc2ncnc(Nc3ccc4c(cnn4Cc4ccccc4)c3)n2)cc1
C=CC(=O)Nc1ccc(Nc2ncnc(N(C)C3CC3c3ccccc3)n2)cc1 (stereo unspecified)
CC#CC(=O)Nc1cccc(Nc2ncnc(N(C)n3c(=O)[nH]c4ccccc43)n2)c1
C=CC(=O)Nc1ccc(Nc2ncnc(Nc3cc(OC)c(OC)c(OC)c3)n2)cc1
C=CC(=O)Nc1ccc(Nc2ncnc(N(C)c3cccc(CC(=O)OC)c3)n2)cc1
C=CC(=O)Nc1cccc(Nc2ncnc(Nc3ccc4c(ccn4Cc4ccccc4)c3)n2)c1
C=CCN(c1ccc(OCC)c(OCC)c1)c1ncnc(Nc2cccc(NC(=O)C#CC)c2)n1
CC#CC(=O)Nc1cccc(Nc2ncnc(N(C)c3cccc4ccccc34)n2)c1
C=CC(=O)N(CCCN1CCOCC1)c1cccc(Nc2ncnc(Nc3ccc(OC)c(OC)c3)n2)c1
C=CC(=O)Nc1ccc(Nc2ncnc(Nc3ccc(F)c(Cl)c3)n2)cc1
CC#CC(=O)Nc1cccc(Nc2ncnc(N(CC)c3cccc(S(=O)(=O)c4ccc([N+](=O)[O-])cc4)c3)n2)c1
C=CC(=O)N(CCCN1CCOCC1)c1cccc(Nc2ncnc(Nc3cccc4ccccc34)n2)c1
CC#CC(=O)Nc1cccc(Nc2ncnc(N(CC)c3ccc(OCC)c(OCC)c3)n2)c1
C=CCN(c1ccc(F)c(Cl)c1)c1ncnc(Nc2cccc(NC(=O)C=C)c2)n1
C=CCN(c1ncnc(Nc2cccc(NC(=O)C#CC)c2)n1)c1cc(Cl)cc2ccccc12
CC#CC(=O)Nc1cccc(Nc2ncnc(Nc3cccc(S(=O)(=O)c4ccc([N+](=O)[O-])cc4)c3)n2)c1
C=CC(=O)Nc1cccc(Nc2ncnc(Nc3ccc(S(=O)(=O)c4ccccc4)cc3)n2)c1
C=CCN(c1ccc(OCCO)cc1)c1ncnc(Nc2ccc(NC(=O)C=C)cc2)n1
C=CC(=O)Nc1cccc(Nc2ncnc(N(C)c3ccc(OCc4ccccc4)cc3)n2)c1
CC#CC(=O)Nc1cc(Nc2ncnc(Nc3ccc(OCc4ccccc4)c(Cl)c3)n2)ccc1OCCCN1CCOCC1
C=CC(=O)Nc1ccc(Nc2ncnc(N(C)c3ccc(OCC)c(OCC)c3)n2)cc1
C=CCN(c1ccc2c(cnn2Cc2ccccc2)c1)c1ncnc(Nc2ccc(NC(=O)C=C)cc2)n1
C=CC(=O)Nc1cccc(Nc2ncnc(N(CC)n3c(=O)n(C(=O)C(C)(C)C)c4ccccc43)n2)c1
C=CC(=O)Nc1ccc(Nc2ncnc(N(CC)c3cc(Cl)cc4ccccc34)n2)cc1
C=CC(=O)Nc1ccc(Nc2ncnc(N(CC)c3cccc(Cl)c3)n2)cc1
C=CC(=O)Nc1cccc(Nc2ncnc(N(C)c3cc(Cl)ccc3C)n2)c1
C=CC(=O)Nc1ccc(Nc2ncnc(N(CC)c3ccc(OC)c(OC)c3)n2)cc1
C=CC(=O)Nc1cc(Nc2ncnc(N(C)c3cccc(Cl)c3)n2)ccc1OCCCC1CCN(C)CC1
C=CC(=O)Nc1cccc(Nc2ncnc(N(CC)c3cccc4ccccc34)n2)c1
C=CC(=O)Nc1ccc(Nc2ncnc(Nc3cc(OC)c(OC)c(OCCN4CCOCC4)c3)n2)cc1
CC#CC(=O)Nc1cccc(Nc2ncnc(N(C)C3CC3c3ccccc3)n2)c1 (stereo unspecified)
C=CC(=O)Nc1cccc(Nc2ncnc(Nc3ccc(OCc4cccc(C(F)(F)F)c4)c(OC)c3)n2)c1
C=CC(=O)Nc1cccc(Nc2ncnc(NN3CCCc4ccc(Cl)cc43)n2)c1
C=CC(=O)Nc1ccc(Nc2ncnc(N(CC)c3ccc(OCc4ccccc4)cc3)n2)cc1
C=CC(=O)Nc1cccc(Nc2ncnc(Nc3cccc(CC(=O)OC)c3)n2)c1
CCN(c1ccc2NN(=Cc2c1)Cc3ccccn3)c4ncnc(Nc5cccc(NC(=O)C=C)c5)n4
CC#CC(=O)Nc1cccc(Nc2ncnc(Nc3cccc4ccccc34)n2)c1
CC#CC(=O)Nc1cccc(Nc2ncnc(Nc3ccc(C(=O)OC)cc3)n2)c1
C=CC(=O)Nc1cc(Nc2ncnc(N(C)c3cccc(Cl)c3)n2)ccc1OCCCN1CCOCC1

— the Kinase Knowledgebase extract (Sharma et al. 2016)
